Experimental data as given in PubChem BioAssay AID588387 (NMMLSC, 2011).
Activity calls are given as the source filed them.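 How the source made its calls: active means half-maximal binding-loss concentration at or below 10 µM, response change across doses of 30% or more, acceptable curve fit; inactive means the rest.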

What follows are compounds tested against GTPase HRas (Homo sapiens) (UniProt P01112) (assay: inhibition of Bodipy-GTP binding to activated H-Ras – biochemical, multiplex bead flow cytometry, round 1, SAR follow-up (AID 588387)). Conditions: GST-H-Ras beads, Bodipy-FL-GTP binding.
Chain of GTPase HRas (Homo sapiens) (P01112 whole entry, looked up): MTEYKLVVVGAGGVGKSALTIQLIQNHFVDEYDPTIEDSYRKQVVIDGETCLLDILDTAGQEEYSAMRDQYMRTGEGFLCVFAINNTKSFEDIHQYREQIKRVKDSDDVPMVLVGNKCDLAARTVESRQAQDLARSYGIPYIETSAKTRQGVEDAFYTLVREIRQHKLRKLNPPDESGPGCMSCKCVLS

SMILES	EC50
O=C(NC(=S)Nc1sc2c(c1C(=O)O)CCOC2)c1ccccc1	32 nM
CC1(C)Cc2c(sc(NC(=S)NC(=O)c3ccccc3Br)c2C(=O)O)CO1	45 nM
CC1Cc2c(sc(NC(=S)NC(=O)c3ccccc3)c2C(=O)O)CO1 (configuration not stated)	47 nM
COc1ccc(C(=O)NC(=S)Nc2sc3c(c2C(=O)O)CC(C)(C)OC3)cc1	145 nM
COc1cccc(C(=O)NC(=S)Nc2sc3c(c2C(=O)O)CC(C)(C)OC3)c1	33 nM
CC1(C)Cc2c(sc(NC(=S)NC(=O)c3ccc(Br)cc3)c2C(=O)O)CO1	260 nM
CC1(C)Cc2c(sc(NC(=O)NC(=O)c3ccccc3)c2C(=O)O)CO1	151 nM
CC1(C)Cc2c(sc(NC(=S)NC(=O)c3cccc(F)c3)c2C(=O)O)CO1	278 nM
CC1(C)CCc2sc(NC(=S)NC(=O)c3ccccc3)c(C(=O)O)c2C1	76 nM
CC1(C)Cc2c(sc(NC(=S)NC(=O)c3ccccc3F)c2C(=O)O)CO1	51 nM
CC1(C)Cc2c(sc(NC(=S)NC(=O)c3ccccc3)c2C(=O)O)CO1	82 nM

Same assay, conditions: GST-H-Ras beads, Bodipy-FL-GTP binding, at 100 µM (top of the series)

SMILES	% response (remaining GTP binding)
CCOC(=O)c1c(NC(=S)Nc2ccccc2)sc2c1CC(C)(C)OC2	inactive
COC(=O)c1c(NC(=S)NC(=O)c2ccccc2)sc2c1CC(C)(C)OC2	inactive
Cc1ccc(NC(=O)Nc2sc3c(c2C(=O)O)CCN(C)C3)cc1	inactive
CC1(C)Cc2c(sc(NC(=S)NC(=O)c3cccc(Br)c3)c2C(=O)O)CO1	inactive
CCOC(=O)c1c(NC(=O)Nc2ccc(C)cc2)sc2c1CCN(C)C2	inactive
Cc1ccc(Nc2nc3sc4c(c3c(=O)o2)CCN(C)C4)cc1	inactive
CCOC(=O)c1c(NC(=O)Nc2ccc(F)cc2)sc2c1CCN(C)C2	inactive
CN1CCc2c(sc3nc(Nc4ccc(F)cc4)oc(=O)c23)C1	inactive
CC1(C)Cc2c(sc(NC(=O)Cc3ccccc3)c2C(=O)O)CO1	inactive
CCOC(=O)c1c(NC(=S)NC(=O)c2ccccc2)sc2ccccc12	inactive
CC(C)(C)OC(=O)c1c(NC(=S)NC(=O)c2ccccc2)sc2c1CCOC2	inactive
CCOC(=O)c1c(NC(=O)NC(C)(C)C)sc2c1CCN(C)C2	inactive
CC1(C)Cc2c(sc(NC(=S)Nc3ccccc3)c2C(=O)O)CO1	inactive
COC(=O)c1c(N)sc2c1CC(C)(C)OC2	inactive
CCOC(=O)c1c(N)sc2ccccc12	inactive
CN1CCc2c(sc(NC(=O)Nc3ccc(F)cc3)c2C(=O)O)C1	inactive
